Results as given in patent US10821148B2, “Pharmaceutical composition for treating or alleviating an autoimmune disease and/or complication thereof and/or nephritis and method for treating or alleviating an autoimmune disease and/or complication thereof and/or nephritis” (Industrial Technology Research Institute, priority 2016, dated 2020).
Where two headings read alike, the source gives them in different places.

Assays:
[1] = system: IL-17 secretion in peripheral blood leukocytes (PBLs); test: Anti-IL-17 secretion screening, peripheral blood leukocyte (PBL) platform; assay type: cell-based; conditions: rat PBL, PMA + ionomycin, 48 hours
Method: 2. Method 2: Anti-IL-17 Secretion Drug Screening Through a Peripheral Blood Leukocyte (PBL) Platform
Blood of SD rat was obtained through saphenous vein sampling. The rat blood was placed in a centrifuge tube containing EDTA (final concentration was 2 mg/ml) and mixed well, and then 4-fold volume of ACK buffer was added to the centrifuge tube to lyse red blood cells. The above-mentioned centrifuge tube was placed in a 37° C. water bath for 5 minutes, and 4 folds volume of PBS buffer was added to the centrifuge tube and the centrifuge tube was centrifuged at a speed of 3000 rpm for 5 minutes, and the supernatant was removed. After that, the steps for lysing red blood cells were repeated twice and an appropriate volume of cell culture medium was added to the centrifuge.
The cells was implanted to a 96-well plate (2×10^5 cells/well), and an appropriate concentration of a drug to be tested was added therein (10 μl/well) and evenly mixed. Next, the 96-well plate was placed in an incubator at 37° C. with 5% CO2 for 1 hour. After that, the stimuli, phorbol-12-myristate-13-acetate (PMA) (final concentration was 30 ng/ml), and ionomycin (final concentration was 1 μg/ml) were added to the 96-well plate. After being evenly mixed, the 96-well plate was placed in an incubator for 48 hours.
After 48 hours of culturing, the 96-well plate was centrifuged at 3000 rpm for 5 minutes to let the cells precipitate and the supernatant (cell-cultured medium) was transferred to a new 96-well plate (about 155 μl/well).
After the cell-cultured medium in the new 96 well plate was 2-4 fold diluted, a rat IL-17 ELISA kit (eBioscience, 88-7170) was used to determine IL-17 content thereof.
For both of cell viability assay and IL-17 content assay, the result of the group adding phorbol-12-myristate-13-acetate (PMA) and ionomycin was set as 100%, and secretion of IL-17 was shown by percentage.

[2] = system: IL-17 secretion in EL4 cells; test: Anti-IL-17 secretion screening, platform of EL4 cells; assay type: cell-based, mouse; conditions: PMA + ionomycin, 18 hours
Method: 8. Method 8: Anti-IL-17 Secretion Drug Screening Through a Platform of EL4 Cells
The EL4 cells were seeded into a 96-well plate (1×10^5 cells/well), and an appropriate concentration of a drug to be tested was added therein (10 μl/well) and evenly mixed.
Next, the 96-well plate was placed in an incubator at 37° C. with 5% CO2 for 1 hour. After that, the stimuli, phorbol-12-myristate-13-acetate (PMA) (final concentration was 10 ng/ml), and ionomycin (final concentration was 5 ng/ml) were added to the 96-well plate. After being evenly mixed, the 96-well plate was placed in an incubator for 18 hours.
After 18 hours of culturing, the 96-well plate was centrifuged at 1200 rpm for 5 minutes to let the cells precipitate and the supernatant (cell-cultured medium) was transferred to a new 96-well plate (about 155 μl/well).
The cell-cultured medium in the new 96-well plate was 2-4 fold diluted and the IL-17 concentration was determined by mouse IL-17 ELISA kit (R&D, DY421E).
For both of cell viability and IL-17 content assays, the results of the group with phorbol-12-myristate-13-acetate (PMA) and ionomycin were set as 100%, and the secretion of IL-17 was expressed by percentage.

[3] = system: MCP-1; test: Lipopolysaccharide (LPS)-induced acute inflammation in mice, MCP-1; assay type: in vivo; conditions: plasma, 1.5 hours after 1 mg/kg LPS IP, BALB/c mice
From the text: (§1) 5. Method 5: Model of Lipopolysaccharide (LPS)-Induced Acute Inflammation in Mice
(§2) 6-8 weeks old male BALB/c mice were purchased from BioLASCO Taiwan Co., Ltd. On the day that the animals entered, the mice were marked, separated into cages, and weighed. Then, the mice were quarantined for one week, and the breeding conditions meet the standards of the National Laboratory Animal Center (Taiwan). During the quarantine, the motility and environmental adaptability of the mice were observed. If the body weights of the mice increased normally, the mice were moved to the breeding region to await the implementation of the experiment.
(§3) Illumination for the breeding region was automatically controlled for 12-hr light-dark cycle, and the temperature was controlled at 23±2° C. The animals were free to obtain sufficient food and water. This strain of animals has had abundant basic reference information and data, and can be suitable for a functional evaluation test for inflammation, and the experimental method had been approved by Institutional Animal Care and Use Committees (IACUC) in the Industrial Technology Research Institute.
(§4) 5.2 Treatment of the Mice
(§5) Before the experiment, the mice were weighed and grouped to make the average body weight for each group has no obvious difference, and the clinical symptoms of the mice were recorded. Two to four hours before the experiment, the mice were fasting, but water was still regularly provided. At a specific time before or after being stimulated by lipopolysaccharides (LPS), the mice were administered a drug to be tested through oral administration, intraperitoneal injection (IP) or intravenous injection (IV), and after the administration, the clinical symptoms of the mice were observed and recorded. The mice of the control group were administered the same volume of solvent. The mice were stimulated by 1 mg/kg lipopolysaccharides (0.25 ml/mouse) through intraperitoneal injection (IP), and the clinical symptoms of the mice were observed and recorded.
After being stimulated by lipopolysaccharides for 1.5 hours, the mice were euthanized with excess CO2, and then whole blood of the mice was obtained through intra-cardiac puncture.
The whole blood of the mice was centrifuged at 6000 rpm at 4° C. for 10 minutes. After that, plasma was collected, and determinations of TNF-α, IL-6 and MCP-1 secretion amounts in the plasma were performed.
5.3 Determinations of TNF-α, IL-6 and MCP-1 Secretion Amounts
TNF-α, IL-6 and MCP-1 secretion amounts in the plasma were analyzed according to the analysis steps of Duoset® ELISA kit, and the steps are summarized as follows:
At room temperature, a capture antibody mixture solution was added to an ELISA 96 well plate (100 μl/well) to cover the surface of the ELISA 96-well plate. […]

[4] = system: IL-6; test: Lipopolysaccharide (LPS)-induced acute inflammation in mice, IL-6; assay type: in vivo; conditions: plasma, 1.5 hours after 1 mg/kg LPS IP, BALB/c mice
From the text: as §1, §2, §3, §4
as §5, with “and recorded. […] The mice” for “and recorded. The mice of the control group were administered the same volume of solvent. The mice”, “and recorded. […]” for “and recorded.”
TNF-α, IL-6 and MCP-1 secretion amounts in the plasma were analyzed according to the analysis steps of Duoset® ELISA kit, and the steps are summarized as follows: […]

[5] = system: TNF-α; test: Lipopolysaccharide (LPS)-induced acute inflammation in mice, TNF-α; assay type: in vivo; conditions: plasma, 1.5 hours after 1 mg/kg LPS IP, BALB/c mice
From the text: as §1
as §2, with “experiment. […]” for “experiment.”
as §5, with “recorded. […]” for “recorded. Two to four hours before the experiment, the mice were fasting, but water was still regularly provided.”, “recorded. […]” for “recorded. The mice of the control group were administered the same volume of solvent.”, “recorded. […]” for “recorded.”

[6] = system: NZBWF1/J mice; assay type: in vivo; conditions: for Survival rate (%): 50 mg/kg, NZBWF1/J mice
From the text: 6. Method 6: NZBWF Autoimmune Animal Model for Systemic Lupus Erythematosus (SLE)
NZBWF1/J female mice were purchased from The Jackson Laboratory, U.S.A, and after animal quarantine, the mice were fed to an appropriate age (about 16 to 25 weeks old).
Before the experiment, mice were randomly grouped according to the antibody to double stranded DNA (dsDNA) value of sera, then the mice were started to administrate test articles. Mice were administrated 5 days a week, and after 10-18 weeks of continuous administration, the mice were sacrificed. During the administration, body weight change was recorded every week, mice urine were collected every 1 to 2 week by gently pressing the abdomens of the mice and the urinary protein content (mg/dl) was determined by test strips and a protein quantitative kit.
After the experiment was completed, the urine was collected and the whole blood of the mice was obtained through intra-cardiac puncture. After that, kidneys of the mice were exteriorized and weighed. The appearance and pathological changes of kidneys were recorded, and the kidneys were preserved in 10% neutral formalin for pathological examinations. The pathological score was determined according to the literature, Shackelford et al. Toxicol. Pathol. 30: 93-96, and shown by a score of 0 to 5: a score of 0 represents not present; a score of 1 represents minimal (<1%); a score of 2 represents slight (1-25%); a score of 3 represents moderate (26-50%); a score of 4 represents moderate/severe (51-75%), and a score of 5 represents severe (76-100%).
6.2 Determination of Protein Content in Urine
The abdomen (bladder) of the mouse was gently pressed every 1 to 2 week to make the mouse urinate and the urine was collected in a 1.5 ml centrifuge tube, the protein content (mg/dl) in the urine was determined by urine test strip. The test strip was moistened with the urine and stood for 1 minute, and the protein content was determined by the color shown by the test strip. […] If the color shown by the test strip is between two color regions, the urinary protein content is determined by the mean of the values represented by the two regions. […]
The contents of blood urea nitrogen (BUN) and creatinine (CRE) in the serum were determined by FUJI DRI-CHEM 4000i biochemistry analyzer, and the steps are summarized as follows:
Before the experiment, the urea nitrogen and creatinine test strips and the serum to be tested were placed at room temperature to back to room temperature. After that, according to the instructions of the analyzer, 10 μl of serum was added to the central portion of the test strip (if the value exceeded the detectable range, the serum was appropriately diluted with sterilized water), and then determined. […]

Compound | IL-17 inhibition IC50, peripheral blood leukocyte (PBL) [1] | IL-17 inhibition IC50, EL4 cells [2] | production of the inflammatory factor MCP-1 [3] | production of the inflammatory factor IL-6 [4] | production of the inflammatory factor TNF-α [5] | further results
ζ-clausenamide [F6m] | 3.0 µg/mL | 5.1 µg/mL | capable of significantly inhibiting the production of the inflammatory factor, MCP-1 | capable of significantly inhibiting the production of the inflammatory factor, IL-6 | – | –
CC1(C)O[C@@H]1COc1c2occc2cc2ccc(=O)oc12 [F7m, prangenin] | 28.7 µg/mL | 47.2 µg/mL | – | – | – | –
COc1c(CC=C(C)C)c(C=O)cc2c1[nH]c1ccccc12 [F3m, indizoline] | 2.4 µg/mL | 2.8 µg/mL | capable of significantly inhibiting the production of the inflammatory factor, MCP-1 | capable of significantly inhibiting the production of the inflammatory factor, IL-6 | – | –
CC(C)=CCCC(C)=CCOc1c2occc2cc2ccc(=O)oc12 [F4m, 8-geranyloxypsoralen] | 4.3 µg/mL | 15.9 µg/mL | capable of significantly inhibiting the production of the inflammatory factor, MCP-1 | capable of significantly inhibiting the production of the inflammatory factor, IL-6 | capable of significantly inhibiting the production of the inflammatory factor, TNF-α | survival rate of NZBWF1/J mice (in words) ([6]; concluded from HE-07-Fr4 (more than 80% of F4m), Table 10): capable of effectively improving the survival rate of NZBWF1/J mice
O=P1(N(CCCl)CCCl)NCCCO1 (centres unmarked) [cyclophosphamide] | – | – | – | – | – | Survival rate (%) ([6]; Table 4 study): 100%; Survival rate (%) ([6]; Table 8 study): 100%; Survival rate (%) ([6]; Table 10 study, 12 weeks): 100%
CC(C)=CCOc1c2occc2cc2ccc(=O)oc12 [F5m, imperatorin] | – | – | capable of significantly inhibiting the production of the inflammatory factor, MCP-1 | – | capable of significantly inhibiting the production of the inflammatory factor, TNF-α | IC50 ([1]; Leukocyte, read-out: IL-17 inhibition IC50, peripheral blood leukocyte (PBL)): 20.5 µg/mL; IC50 ([2]; Mus musculus, read-out: IL-17 inhibition IC50, EL4 cells): 45 µg/mL
